Measurements reported in the NIST ThermoML archive (doi:10.1016/j.tca.2014.05.033).
“And” between values parts separate entries of the source, which are not always exact repeats. Equal values may be shown once. ± gives the expanded uncertainty stated by the source. Values belong to the compound of their own block, whether it stands above or below them.

Key:
[1] = mn = molality of the nth substance listed, in mol/kg; details: 298.15 K, 101 kPa, Liquid, Vibrating tube method
[2] = refractive index (Na D-line) (dimensionless); mn = molality of the nth substance listed, in mol/kg; details: 298.15 K, 101 kPa, Liquid, Standard Abbe refractometry
[3] = molar enthalpy of vaporization or sublimation; details: 298.15 K, DSC
[4] = Liquid, Transpiration method

SMILES: c1ccccc1 [benzene] + C(#Cc1ccccc1)c1ccccc1
mass density ([1]; m2 = 0): 873.285 ± 0.28 kg/m3 | refractive index ([2]; m2 = 0): 1.49734 ± 0.00031

SMILES: c1ccc(-c2c3ccccc3cc3ccccc23)cc1 [9-phenylanthracene] + c1ccccc1
mass density ([1]; m1 = 0.00011): 873.687 ± 0.71 kg/m3 | mass density ([1]; m1 = 0.00032): 873.837 ± 0.75 kg/m3 | mass density ([1]; m1 = 0.00038): 873.891 ± 0.91 kg/m3 | mass density ([1]; m1 = 0.0008): 874.047 ± 0.39 kg/m3 | refractive index ([2]; m1 = 0.00011): 1.49764 ± 0.00031 | refractive index ([2]; m1 = 0.00032): 1.49776 ± 0.00031 | refractive index ([2]; m1 = 0.00038): 1.4978 ± 0.00031 | refractive index ([2]; m1 = 0.0008): 1.49794 ± 0.00031

SMILES: c1ccccc1 [benzene] + c1ccc(-c2c3ccccc3cc3ccccc23)cc1
mass density ([1]; m2 = 0): 873.612 ± 0.69 kg/m3 | refractive index ([2]; m2 = 0): 1.49758 ± 0.00031

SMILES: c1ccc(-c2cccc(-c3ccccc3)c2)cc1 [m-terphenyl]
molar enthalpy ([3]; Crystal): 27.6 ± 0.621 kcal/mol

SMILES: c1ccccc1 [benzene] + c1ccc(-c2c(-c3ccccc3)c(-c3ccccc3)c3ccccc3c2-c2ccccc2)cc1
mass density ([1]; m2 = 0): 873.277 ± 1.3 kg/m3 | refractive index ([2]; m2 = 0): 1.49731 ± 0.00031

SMILES: c1ccc(-c2c3ccccc3cc3ccccc23)cc1 [9-phenylanthracene]
molar enthalpy ([3]; Crystal): 30 ± 0.765 kcal/mol

SMILES: c1cc2ccc3cccc4ccc(c1)c2c34 [pyrene]
molar enthalpy ([3]; Crystal): 25.2 ± 0.789 kcal/mol

SMILES: c1ccccc1 [benzene] + c1ccc(-c2cccc(-c3ccccc3)c2-c2ccccc2)cc1
mass density ([1]; m2 = 0): 873.584 ± 0.76 kg/m3 | refractive index ([2]; m2 = 0): 1.49778 ± 0.00031

SMILES: c1ccc(-c2ccc(-c3ccccc3)cc2)cc1 [p-terphenyl]
molar enthalpy ([3]; Crystal): 29 ± 1 kcal/mol

SMILES: c1ccc(-c2cccc(-c3ccccc3)c2)cc1 [m-terphenyl] + c1ccccc1
mass density ([1]; m1 = 0.00482): 876.044 ± 0.54 kg/m3 | mass density ([1]; m1 = 0.00941): 878.445 ± 0.53 kg/m3 | mass density ([1]; m1 = 0.0142): 880.914 ± 0.52 kg/m3 | mass density ([1]; m1 = 0.0215): 884.612 ± 0.52 kg/m3 | refractive index ([2]; m1 = 0.00482): 1.49966 ± 0.00031 | refractive index ([2]; m1 = 0.00941): 1.50149 ± 0.00031 | refractive index ([2]; m1 = 0.0142): 1.50336 ± 0.00031 | refractive index ([2]; m1 = 0.0215): 1.50621 ± 0.00031

SMILES: c1ccc2c(c1)-c1cccc3cccc-2c13 [fluoranthene]
molar enthalpy ([3]; Crystal): 24.1 ± 0.669 kcal/mol

SMILES: c1ccccc1 [benzene] + c1ccc(-c2cccc(-c3ccccc3)c2)cc1
mass density ([1]; m2 = 0): 873.483 ± 0.54 kg/m3 | refractive index ([2]; m2 = 0): 1.49772 ± 0.00031

SMILES: c1ccccc1 [benzene] + c1ccc(-c2c3ccccc3c(-c3ccccc3)c3ccccc23)cc1
mass density ([1]; m2 = 0): 873.534 ± 0.89 kg/m3 | refractive index ([2]; m2 = 0): 1.49752 ± 0.00031

Further lines, with some results ahead:

mass density ([1]; m1 = 8e-05): 873.38 ± 1.3 kg/m3 | mass density ([1]; m1 = 0.00011): 873.424 ± 1.2 kg/m3 | mass density ([1]; m1 = 0.00022): 873.551 ± 1.3 kg/m3 | refractive index ([2]; m1 = 0.0008): 1.49737 ± 0.00031 | refractive index ([2]; m1 = 0.0011): 1.4974 ± 0.00031 | refractive index ([2]; m1 = 0.0017): 1.49744 ± 0.00031 and 1.49745 ± 0.00031 | refractive index ([2]; m1 = 0.0022): 1.49748 ± 0.00031
SMILES: c1ccc(-c2c(-c3ccccc3)c(-c3ccccc3)c3ccccc3c2-c2ccccc2)cc1 [1,2,3,4-tetraphenylnaphthalene] + c1ccccc1
mass density ([1]; m1 = 0.00017): 873.488 ± 1.2 kg/m3 and 873.494 ± 1.2 kg/m3

molar enthalpy ([3]; Crystal): 33.1 ± 1 kcal/mol
SMILES: c1ccc(-c2cccc(-c3ccccc3)c2-c2ccccc2)cc1 [1,2,3-triphenylbenzene]

molar enthalpy ([3]; Crystal): 51 ± 1.31 kcal/mol
SMILES: c1ccc(-c2c3ccccc3c(-c3ccccc3)c3c(-c4ccccc4)c4ccccc4c(-c4ccccc4)c23)cc1 [5,6,11,12-tetraphenylnaphthacene]

molar enthalpy ([3]; Crystal): 22 ± 1.08 kcal/mol
SMILES: C(#Cc1ccccc1)c1ccccc1 [1,2-diphenylethyne]

molar enthalpy ([3]; Crystal): 36.5 ± 1.27 kcal/mol
SMILES: c1ccc(-c2c3ccccc3c(-c3ccccc3)c3ccccc23)cc1 [9,10-diphenylanthracene]

molar enthalpy ([3]; Crystal): 39.4 ± 1.48 kcal/mol
SMILES: c1ccc(-c2c(-c3ccccc3)c(-c3ccccc3)c3ccccc3c2-c2ccccc2)cc1 [1,2,3,4-tetraphenylnaphthalene]

mass density ([1]; m1 = 0.00038): 873.87 ± 0.78 kg/m3 | mass density ([1]; m1 = 0.00061): 874.054 ± 0.83 kg/m3 | mass density ([1]; m1 = 0.0007): 874.135 ± 0.78 kg/m3 | mass density ([1]; m1 = 0.0008): 874.201 ± 0.67 kg/m3 | refractive index ([2]; m1 = 0.00038): 1.49797 ± 0.00031 | refractive index ([2]; m1 = 0.00061): 1.49809 ± 0.00031 | refractive index ([2]; m1 = 0.0007): 1.49814 ± 0.00031 | refractive index ([2]; m1 = 0.0008): 1.49819 ± 0.00031
SMILES: c1ccc(-c2cccc(-c3ccccc3)c2-c2ccccc2)cc1 [1,2,3-triphenylbenzene] + c1ccccc1

mass density ([1]; m1 = 0.00012): 873.64 ± 0.84 kg/m3 | mass density ([1]; m1 = 0.00016): 873.666 ± 0.93 kg/m3 | mass density ([1]; m1 = 0.00022): 873.731 ± 1.1 kg/m3 | mass density ([1]; m1 = 0.00028): 873.796 ± 1.1 kg/m3 | mass density ([1]; m1 = 0.0003): 873.822 ± 1.3 kg/m3 | refractive index ([2]; m1 = 0.00012): 1.49761 ± 0.00031 | refractive index ([2]; m1 = 0.00016): 1.49763 ± 0.00031 | refractive index ([2]; m1 = 0.00022): 1.49768 ± 0.00031 | refractive index ([2]; m1 = 0.00028): 1.49773 ± 0.00031 | refractive index ([2]; m1 = 0.0003): 1.49776 ± 0.00031
SMILES: c1ccc(-c2c3ccccc3c(-c3ccccc3)c3ccccc23)cc1 [9,10-diphenylanthracene] + c1ccccc1

molar enthalpy ([3]; Liquid): 19.8 ± 0.621 kcal/mol | vapor or sublimation pressure ([4]; 318.5 K): 0.00026 ± 2e-05 kPa | vapor or sublimation pressure ([4]; 323.5 K): 0.00038 ± 2e-05 kPa | vapor or sublimation pressure ([4]; 328.3 K): 0.00062 ± 3e-05 kPa | vapor or sublimation pressure ([4]; 328.4 K): 0.0006 ± 3e-05 kPa | vapor or sublimation pressure ([4]; 333.4 K): 0.00092 ± 5e-05 kPa | vapor or sublimation pressure ([4]; 338 K): 0.00136 ± 7e-05 kPa | vapor or sublimation pressure ([4]; 351 K): 0.00376 ± 0.0002 kPa | vapor or sublimation pressure ([4]; 353.1 K): 0.00462 ± 0.00024 kPa | vapor or sublimation pressure ([4]; 358.3 K): 0.00644 ± 0.00034 kPa | vapor or sublimation pressure ([4]; 358.5 K): 0.00687 ± 0.00036 kPa | vapor or sublimation pressure ([4]; 363 K): 0.00953 ± 0.0005 kPa | vapor or sublimation pressure ([4]; 368.3 K): 0.01352 ± 0.0007 kPa | vapor or sublimation pressure ([4]; 371 K): 0.01665 ± 0.00087 kPa
SMILES: c1ccc(-c2cccc3ccccc23)cc1 [1-phenylnaphthalene]
vapor or sublimation pressure ([4]; 343.6 K): 0.00209 ± 0.00011 kPa and 0.0021 ± 0.00011 kPa

mass density ([1]; m1 = 0.00019): 873.334 ± 0.34 kg/m3 | mass density ([1]; m1 = 0.00036): 873.403 ± 0.45 kg/m3 | mass density ([1]; m1 = 0.00042): 873.437 ± 0.58 kg/m3 | mass density ([1]; m1 = 0.00079): 873.534 ± 0.28 kg/m3 | refractive index ([2]; m1 = 0.00019): 1.49738 ± 0.00031 | refractive index ([2]; m1 = 0.00036): 1.49743 ± 0.00031 | refractive index ([2]; m1 = 0.00042): 1.49747 ± 0.00031 | refractive index ([2]; m1 = 0.00079): 1.49756 ± 0.00031
SMILES: C(#Cc1ccccc1)c1ccccc1 [1,2-diphenylethyne] + c1ccccc1

molar enthalpy ([3]; Crystal): 24.6 ± 0.669 kcal/mol
SMILES: C(=C\c1ccccc1)/c1ccccc1 [(E)-1,2-diphenylethene]

molar enthalpy ([3]; Crystal): 46.8 ± 1.41 kcal/mol
SMILES: c1ccc(-c2c(-c3ccccc3)c(-c3ccccc3)c(-c3ccccc3)c(-c3ccccc3)c2-c2ccccc2)cc1 [hexaphenylbenzene]

molar enthalpy ([3]; Crystal): 27.8 ± 0.741 kcal/mol
SMILES: c1ccc2cc3c(ccc4ccccc43)cc2c1 [benz[a]anthracene]

molar enthalpy ([3]; Crystal): 35.4 ± 1.12 kcal/mol
SMILES: c1ccc2c(c1)ccc1cc3c(ccc4ccccc43)cc12 [dibenz[a,h]anthracene]
